Like-named read-outs stand apart in the source and are kept apart here.
Key:
NlugCSP8 [1] = molecular target: T1, NlugCSP8 (Nilaparvata lugens, UniProt B7TVH4); assay: Fluorescence competitive ligand binding assay with 1-NPN probe
Procedure: The recombinant pET-30a/CSP8 expression plasmid was transformed into Escherichia coli BL21 (DE3) competent cells. After DNA sequencing, a single positive clone was grown in 10 mL Luria-Bertani (LB) medium containing kanamycin (50 μg/mL) with shaking overnight at 220 rpm and 37°C. The culture was diluted to 2 L LB medium (supplemented with 50 μg/mL kanamycin) and grown at 37°C with shaking at 220 rpm until the culture reached the optical density value of ~0.6–0.7 at 600 nm. The recombinant protein expression was induced by the addition of 2 mM IPTG (Isopropyl β-D-1-thiogalactopyranoside), followed by culturing for 4 h at 37°C. The bacterial cells were harvested by centrifugation (10,000 rpm, 10 min) and sonicated. The expressed protein presented in the supernatant as a soluble form. Then, NlugCSP8 purification was performed using a Ni-ion affinity chromatography column (GE Healthcare, Uppsala, Sweden). His-tag was removed from the recombinant protein with the addition of recombinant bovine enterokinase (EK) in the eluted fractions of protein, followed by 16 h incubation at 25°C. After running the digested protein back through the Ni-ion affinity chromatography column, the tag-free protein was obtained in the flow through fraction. Protein expression and purification steps were assessed by 15% SDS-PAGE (sodium dodecyl sulfate-polyacrylamide gel electrophoresis). Finally, purified protein was dialyzed in Tris buffer (pH 5.0) and (pH 7.4). The concentration of purified protein was determined prior to perform ligand-binding specificities of NlugCSP8 with 25 selected ligands at pH 5.0 and pH 7.4.
Fluorescence-based ligand binding assays were performed based on the method described by Sun X. et al. ([2016]). According to previous studies about the rice-specific volatiles (Fujii et al., [2010]; He et al., [2011]; Yang et al., [2014]; Zhang et al., [2014]), 25 potential ligands were selected for the fluorescence binding assays (Table 1). All the ligands used in this study were purchased from Sigma-Aldrich (St. Louis, MO, USA) and stored according to manufacturer instructions. The ligand binding affinity for various ligands was determined by using the 1-NPN (N-phenyl-1-naphthylamine) as a fluorescent probe. RF-5301PC fluorimeter (Shimadzu, Kyoto, Japan) was used for fluorescence binding assay at 25°C with 10 nm slit width and 1 cm light path quartz cuvette for emission and excitation. The 1-NPN/NlugCSP8 mixture was excited using an excitation wavelength of 337 nm, and the fluorescence intensity was recorded between 350 and 600 nm following an established protocol (Ban et al., [2002]). The 1-NPN and all the potential ligands were prepared in spectrophotometric-grade methanol. The binding constant for 1-NPN was measured by adding aliquots of 1 mM 1-NPN into a 2 μM solution of protein in 30 mM Tris-HCL at room temperature. […] For each test, fluorescence measurement was conducted after the reaction was incubated for 2 min at room temperature (Liu et al., [2015]). Three independent measurements were used to obtain the binding data. 1-NPN/NlugCSP8 dissociation constants (Kd) were calculated from Scatchard plots of the binding data using the Prism 5 software (GraphPad, La Jolla, CA, USA). The curves were linearized using the Scatchard plot program (Campanacci et al., [2001]). The dissociation constants of the competitors were determined by using the corresponding IC50-values according to the equation Ki = [IC50]/ (1+[1-NPN]/K1−NPN), where IC50 represents the concentration of ligand which decreases the fluorescence intensity of [1-NPN], [1-NPN] is the free concentration of 1-NPN and K1−NPN is the dissociation constant of the NlugCSP8/1-NPN complex (Ban et al., [2003]; Tian and Zhang, [2016]). For the reader's convenience, data were recalculated as 1/ki × 1,000, for which a larger value designates a stronger ligand binding affinity.

Nilaparvata lugens [2] = assay: H-tube olfactometer behavioral assay; assay type: in vivo; conditions: macropterous adults, vs liquid paraffin
Procedure: BPH behavior responses to different ligands were tested in an H-tube olfactometer similar to which previously used by Yi et al. ([2018]) in our laboratory. The H-tube olfactometer mainly consists of two glass tubes (arms) with gauze at its top end. These two glass tubes were connected by another tube (5 cm in diameter, 20 cm long with a hole of 1 cm in the middle for releasing BPH). Twenty macropterous (10 from each sex) BPH adults were introduced into the H-tube and the number of BPH was counted at 30 min after their introduction. Liquid paraffin was used as in control arm. Rubber septa were absorbed in the liquid paraffin and solutions of the odor molecules to be tested (liquid paraffin+ different concentration of tested volatile) and placed at room temperature. After 24 h, one rubber septa from each control and tested volatile was put in each glass arm. After one replication, rubber septa were changed and three treatments (1, 10, and 100 μl/mL) of tested volatiles against macropterous adults were tested in eight replications. After four replications, the H-tube olfactometer was washed with 75% alcohol and the liquid paraffin rubber septa were placed in another arm to complete the other four replications. The impact of NlugCSP8-dsRNA on the preference of N. lugens was also tested by H-tube olfactometer assays. Corresponding control experiments without dsRNA injection were performed to investigate whether the preference of N. lugens was affected by volatile concentration change. Three treatments of BPH (NlugCSP8-dsRNA injected, GFP-dsRNA injected, and without injection) were tested in four replications. As in case of dsRNA injected insects, the concentration of volatiles that have highly significant attractive results on non-injected insects used for dsCSP8 and dsGFP injected insects. In order to evaluate the best RNAi effect, mRNA levels of NlugCSP8-dsRNA injected insects were determined and compared with the GFP-dsRNA-injected and non-injected insects, prior to H-tube olfactometer bioassay. Based on the findings of previous step, we re-inject the BPH and the individuals with the best post-injection RNAi effect after 7-days, were used in the H-tube olfactometer bioassay. Bioassays were performed under controlled conditions at 26 ± 2°C and 75 ± 5% relative humidity.

Nilaparvata lugens [3] = assay: H-tube olfactometer assay after RNAi (dsRNA-injected BPH); assay type: in vivo; conditions: 10 μl/mL (nerolidol), 100 μl/mL (hexanal); compared with controls
Procedure: BPH behavior responses to different ligands were tested in an H-tube olfactometer similar to which previously used by Yi et al. ([2018]) in our laboratory. The H-tube olfactometer mainly consists of two glass tubes (arms) with gauze at its top end. These two glass tubes were connected by another tube (5 cm in diameter, 20 cm long with a hole of 1 cm in the middle for releasing BPH). Twenty macropterous (10 from each sex) BPH adults were introduced into the H-tube and the number of BPH was counted at 30 min after their introduction. Liquid paraffin was used as in control arm. Rubber septa were absorbed in the liquid paraffin and solutions of the odor molecules to be tested (liquid paraffin+ different concentration of tested volatile) and placed at room temperature. After 24 h, one rubber septa from each control and tested volatile was put in each glass arm. After one replication, rubber septa were changed and three treatments (1, 10, and 100 μl/mL) of tested volatiles against macropterous adults were tested in eight replications. […] In order to evaluate the best RNAi effect, mRNA levels of NlugCSP8-dsRNA injected insects were determined and compared with the GFP-dsRNA-injected and non-injected insects, prior to H-tube olfactometer bioassay. […]

NlugCSP7 = test system: NlugCSP7; parameters: method as in Yang et al., 2014; conditions: ref Yang et al., 2014; cited from earlier work
NlugCSP8 [4] = molecular target: T1, NlugCSP8; assay: Titration of NlugCSP8 with 1-NPN (Scatchard plot); assay type: binding; conditions: read-out: dissociation constant
Procedure: Fluorescence-based ligand binding assays were performed based on the method described by Sun X. et al. ([2016]). According to previous studies about the rice-specific volatiles (Fujii et al., [2010]; He et al., [2011]; Yang et al., [2014]; Zhang et al., [2014]), 25 potential ligands were selected for the fluorescence binding assays (Table 1). All the ligands used in this study were purchased from Sigma-Aldrich (St. Louis, MO, USA) and stored according to manufacturer instructions. The ligand binding affinity for various ligands was determined by using the 1-NPN (N-phenyl-1-naphthylamine) as a fluorescent probe. RF-5301PC fluorimeter (Shimadzu, Kyoto, Japan) was used for fluorescence binding assay at 25°C with 10 nm slit width and 1 cm light path quartz cuvette for emission and excitation. The 1-NPN/NlugCSP8 mixture was excited using an excitation wavelength of 337 nm, and the fluorescence intensity was recorded between 350 and 600 nm following an established protocol (Ban et al., [2002]). The 1-NPN and all the potential ligands were prepared in spectrophotometric-grade methanol. The binding constant for 1-NPN was measured by adding aliquots of 1 mM 1-NPN into a 2 μM solution of protein in 30 mM Tris-HCL at room temperature. […] For each test, fluorescence measurement was conducted after the reaction was incubated for 2 min at room temperature (Liu et al., [2015]). […]

BPH = test system: BPH; parameters: method as in Obata et al., 1983; conditions: volatile isolated from rice plants; ref Obata et al., 1983; cited from earlier work
[5] = pH 5.0, calculated from IC50, read-out: Ki
[6] = pH 7.4, calculated from IC50, read-out: Ki
[7] = Ki, pH 5.0, calculated from IC50
[8] = Ki, pH 7.4, calculated from IC50

T1 sequence (B7TVH4 entry or part of it): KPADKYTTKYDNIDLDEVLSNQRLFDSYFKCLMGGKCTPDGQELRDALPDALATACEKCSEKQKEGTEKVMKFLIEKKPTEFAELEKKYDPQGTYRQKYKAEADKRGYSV

Row | Ki (NlugCSP8 [1]; [5]) [µM] | IC50 (NlugCSP8 [1]; pH 5.0, read-out: IC50) [µM] | Ki (NlugCSP8 [1]; [6]) [µM] | IC50 (NlugCSP8 [1]; pH 7.4, read-out: IC50) [µM] | SMILES | IC50 (NlugCSP8 [1]; IC50, pH 5.0) [µM] | IC50 (NlugCSP8 [1]; IC50, pH 7.4) [µM] | Ki (NlugCSP8 [1]; [7]) [µM] | Ki (NlugCSP8 [1]; [8]) [µM] | also measured
1 | 8.38 | 9.61 | 10 | 12 | C=CC(C)(O)CCC=C(C)CCC=C(C)C (mixture of isomers) [Nerolidol] |  |  |  |  | behavioral response of BPH (Nilaparvata lugens [2]; 10 μl/mL): significant attraction; behavior response of dsCSP8-injected (RNAi) BPH to attractant (Nilaparvata lugens [3]): attraction activity was completely lost and lost; binding affinity with NlugCSP7 (NlugCSP7): weak affinities
2 | 34.8 | 39.9 | 27 | 32.4 | CC1=CCC2C(C1)C2(C)C (single isomer, unassigned; (+)) [(+)-3-Carene] |  |  |  |  | 
3 |  |  |  |  | c1ccc(Nc2cccc3ccccc23)cc1 [1-NPN, N-phenyl-1-naphthylamine] |  |  |  |  | Kd (NlugCSP8 [4]; pH 5.0): 6.8 µM; Kd (NlugCSP8 [4]; pH 7.4): 4.99 µM
4 | 19.2 | 22.1 | 19.4 | 23.3 | C=CC(O)CCCCC (stereo not shown) [1-Octen-3-ol] |  |  |  |  | 
5 | 9.77 | 11.2 | 13.8 | 16.5 | CCCCCC(C)O (stereo not shown) [2-Heptanol] |  |  |  |  | behavioral response of BPH (Nilaparvata lugens [2]; concentration not given): significant aversion
6 | 10.4 | 12 | 12.5 | 15 | CCCCCCCCCCCC(C)=O [2-Tridecanone] |  |  |  |  | binding affinity with NlugCSP7 (NlugCSP7): relatively weak binding affinity; attraction of BPH (BPH): able to attract BPH
7 | 27.4 | 31.4 | 19.6 | 23.5 | CCC(O)CC [3-Pentanol] |  |  |  |  | 
8 |  |  |  |  | Cc1ccc(C(C)C)cc1 [4-Isopropyl to luene] | 22.7 | 20.3 | 19.8 | 16.9 | 
9 |  |  |  |  | CC1=CC[C@](O)(C(C)C)CC1 [(–)-Terpinen-4-ol] | 11.4 | 19 | 9.97 | 15.8 | behavioral response of BPH (Nilaparvata lugens [2]; 1 μl/mL): attractive; behavioral response of BPH (Nilaparvata lugens [2]; 10 μl/mL): attractive
10 |  |  |  |  | CC/C=C\CCO [Cis-3-hexen-1-ol] | 38 | 27.5 | 33.1 | 22.9 | 
11 |  |  |  |  | OC1CCCCC1 [Cyclohexanol] | 95.5 | 51.2 | 83.3 | 42.7 | 
12 | 28.4 | 32.6 | 12.2 | 14.6 | CCCCCCCCCCCC=O [Dodecyl aldehyde] |  |  |  |  | 
13 | 12.2 | 14 | 12.4 | 14.9 | CCCCCCCCCCCCCCCCCCCC [Eicosane] |  |  |  |  | 

Source: publication PMC5906745, “Silencing of Chemosensory Protein Gene NlugCSP8 by RNAi Induces Declining Behavioral Responses of Nilaparvata lugens” (Frontiers in Physiology, 2018)
